By IC50 is commonly meant the concentration that gives 50% inhibition. Read a low IC50 as greater potency in that assay.

The text below walks through data of patent publication US9682966B2, “Kappa opioid ligands” (The Scripps Research Institute, priority 2012, dated 2017).

SMILES strings stand for the structures.

Chain of kappa opioid receptor (OPRK1) (P41145 whole entry): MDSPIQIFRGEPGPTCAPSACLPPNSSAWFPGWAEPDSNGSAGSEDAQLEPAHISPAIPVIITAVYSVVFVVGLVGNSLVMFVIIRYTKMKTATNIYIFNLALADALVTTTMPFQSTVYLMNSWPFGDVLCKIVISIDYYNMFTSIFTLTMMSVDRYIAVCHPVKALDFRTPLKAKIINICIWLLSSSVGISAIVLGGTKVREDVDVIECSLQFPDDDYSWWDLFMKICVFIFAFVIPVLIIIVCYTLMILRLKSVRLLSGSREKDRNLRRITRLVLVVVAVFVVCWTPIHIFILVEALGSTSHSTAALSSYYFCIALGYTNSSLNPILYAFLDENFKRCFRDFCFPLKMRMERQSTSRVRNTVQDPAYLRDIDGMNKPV

One experiment concerns the target kappa opioid receptor (OPRK1) (Homo sapiens (Human), UniProt P41145). Briefly: OPRK1 antagonist assay (b-arrestin-2-TEV / b-lactamase reporter, EC80 U-50488 challenge). It counts as cell-based. The note with it: % inhibition to which the printed IC50 value refers, if other than 50%.
`COC(=O)c1cc(Br)cnc1N1CCC(NCCO)CC1` [compound 6]: the “% inhib if other than 50%” value is on record as 80%.

Still in this experiment, the particulars now being: OPRK1 antagonist assay vs EC80 U-50488.
`Cc1ccc2nc(N3CCC(NC4CCCC4)CC3)c(-c3nc(C)no3)cc2c1` [compound 369] showed an IC50 of 2 nM. On to `COC(=O)c1cnc(N2CCC(NC3CCCCC3)C(O)C2)c(Br)c1` (centres unmarked) [compound 103], for which the IC50 stood at 137 nM. On the same count and under the same terms, then `CO[C@H]1CN(c2ncc(C)cc2-c2noc(C)n2)CC[C@H]1NC1CCCCC1` [compound 395], with 49 nM; and `CC(=O)c1cc(C2CC2)cnc1N1CC[C@@H](NC2CCCCC2)[C@H](O)C1` [C62], with above 10000 nM. Still for that read-out and setting: then `CO[C@H]1CN(c2nc(C)ccc2-c2noc(C)n2)CC[C@H]1NC1CCCCC1` [compound 429], with 214 nM; and `Cc1ccc2nc(N3CCC(CNC4CCCCC4)CC3)c(-c3nc(C)no3)cc2c1` [C84], with above 10000 nM. Still for that read-out and setting: then `O=Cc1cc(Br)cnc1N1CCC(NC2CCCCC2)C(O)C1` (centres unmarked) [C47], with above 10000 nM; and `Cc1noc(-c2cc3cc(C)c(C)cc3nc2N2CCC(NC3CCOCC3)CC2)n1` [C90], with above 10000 nM. `CO[C@@H]1CN(c2nc(C)ccc2-c2ccc(C)nn2)CC[C@@H]1NC1CCCCC1` [compound 427] gave a half-maximal inhibitory concentration (IC50) of 4600 nM. Still for that read-out and setting: as for `COC1CN(c2nc3ccccc3cc2-c2ncc(C)o2)CCC1NC1CCCCC1` (centres unmarked) [C79], the figure is above 10000 nM. The same measure, in the same setting: as for `Cc1ccc2nc(N3CCC(NC4CCCCCC4)CC3)c(-c3noc(C)n3)cc2c1` [compound 415], the figure is 3 nM.

`Cc1ccc2nc(N3CCC(NC[C@@H](C)O)CC3)c(-c3noc(C)n3)cc2c1` [compound 423] returned an IC50 of 191 nM. Take `O[C@@H]1CCCC[C@H]1NC1CCN(c2ccc(Cl)cn2)CC1` [C12]: the IC50 was above 10000 nM. On the same count and under the same terms, as for `Cc1cnc(N2CCC(NCC(C)C)CC2)c(-c2cc(C)no2)c1` [compound 381], the figure is 860 nM.

Molecule `Cc1cc(-c2noc(C)n2)c(N2CCC(NCC(C)C)CC2)nn1` [compound 431] yielded an IC50 of 22 nM. Same read-out and setting: as for `CO[C@H]1CN(c2ncc(C)cc2-c2nc(C)no2)CC[C@H]1N(C1CCCC1)C1CCCC1` [compound 339], the figure is 29 nM. Same read-out and setting: then `Cc1ccc2nc(N3CCC(NC4CCC4)CC3)c(-c3nc(C)no3)cc2c1` [compound 370], with 37 nM.

`Cc1ccc2nc(N3CCC(NC4CCOCC4)CC3)c(-c3ccc(C)nn3)cc2c1` [compound 441] showed an IC50 of 392 nM. On the same count and under the same terms, then `CN(C)C(=O)c1cc(Br)cnc1N1CCC(NC2CCCCC2)CC1` [C19], with above 10000 nM. On to `Cc1ccc2nc(N3CCC(NC(=O)OC(C)(C)C)CC3)c(-c3nc(C)no3)cc2c1` [C71], for which the IC50 is above 10000 nM. For `CCCCOC(=O)c1cc(Br)cnc1N1CCC(NC2CCCCC2)CC1` [C32], the IC50 is above 10000 nM. `COC(=O)c1cc(Br)cnc1N1CCC(N)CC1` [C1] yielded an IC50 above 10000 nM. The same measure, in the same setting: as for `Cc1ccc2nc(N3CCC(NC4CCCCC4)CC3)c(-c3ccc(C)nn3)cc2c1` [compound 438], the figure is 75 nM; as for `FC(F)(F)c1cc(Br)cnc1N1CCC(NC2CCCCC2)CC1` [C25], above 10000 nM. On the same count and under the same terms, as for `CO[C@@H]1CN(c2nc(C)c(C)cc2-c2nc(C)no2)CC[C@@H]1NC1CCCC1` [compound 346], the figure is 137 nM. Same read-out and setting: then `COCCOC(=O)c1cc(Br)cnc1N1CCC(NC2CCCCC2)CC1` [C31], with above 10000 nM; and `CCc1cnc(N2CCC(NC3CCCCC3)C(OC)C2)c(-c2nc(C)no2)c1` (centres unmarked) [compound 379], with 525 nM. With `Cc1nc(-c2cc3cc(F)ccc3nc2N2CCC(NC3CCCCC3)CC2)no1` [compound 489], the IC50 was found to be 616 nM. Still for that read-out and setting: as for `CCC(CC)NC1CCN(c2nc3ccc(C)cc3cc2-c2noc(C)n2)CC1` [compound 416], the figure is 4 nM; as for `Cc1cnc(N2CCC(NC3CCCCC3)CC2)c(-c2nc(C)no2)c1` [compound 388], 20 nM. As to `Cc1cnc(N2CCC(NC3CCOCC3)CC2)c(-c2nc(C)no2)c1` [compound 389], the IC50 worked out at 153 nM. Same read-out and setting: then `CO[C@@H]1CN(c2nc(C)ccc2-c2noc(C)n2)CC[C@@H]1NC1CCCCC1` [compound 430], with 1000 nM; and `CCc1ccc(-c2cc3cc(C)ccc3nc2N2CCC(NC3CCCC[C@@H]3O)CC2)nn1` (some centres unmarked) [compound 454], with 783 nM. Regarding `COC1CN(c2nc3ccc(C)cc3cc2-c2noc(C)n2)CCC1NC1CCCCC1` (centres unmarked) [compound 314], the IC50 worked out at 2 nM. With `Cc1ccc2nc(N3CCC(NC4(C)CCOCC4)CC3)c(-c3noc(C)n3)cc2c1` [compound 417], the IC50 was determined as 105 nM.

`Cc1ccc2nc(N3CCC(C)(NC4CCCCC4)CC3)c(-c3nc(C)no3)cc2c1` [C75]: the IC50 is above 10000 nM. On the same count and under the same terms, then `COC1CN(c2ncc(C)cc2-c2cc(C)no2)CCC1NC1CCCCC1` (centres unmarked) [compound 380], with 128 nM; and `Cc1cnc(-c2cc3ccccc3nc2N2CCC(NC3CCOCC3)CC2)o1` [C81], with above 10000 nM; and `COC(=O)c1cnc(N2CCC(NC3CCCCC3)CC2)c(NS(C)(=O)=O)c1` [C40], with above 10000 nM. The same measure, in the same setting: as for `COC(=O)c1cnc(N2CCC(NC3CCCCC3)CC2)c(N)c1` [C38], the figure is above 10000 nM; as for `CO[C@@H]1CN(c2nc3ccc(C)cc3cc2-c2nc(C)no2)CC[C@@H]1NC1CCCCC1` [compound 315], 4 nM. `COC(=O)c1cc(NC(=O)CCN(C)C)cnc1N1CCC(NC2CCCCC2)CC1` [C33] showed an IC50 above 10000 nM. Still for that read-out and setting: then `CCc1ccc(-c2cc3cc(C)ccc3nc2N2CCC(NC3CCCCC3)CC2)nn1` [compound 455], with 1640 nM.

With `CO[C@@H]1CN(c2nc3ccccc3cc2-c2nc(C)no2)CC[C@@H]1NC1CCCCC1` [compound 329], the IC50 was found to be 12.2 nM. Still for that read-out and setting: then `Cc1ccc2nc(N3CCCC(NC4CCCCC4)CC3)c(-c3nc(C)no3)cc2c1` (centres unmarked) [C80], with above 10000 nM; and `CCc1noc(-c2cc3cc(C)ccc3nc2N2CC[C@H](NC3CCCCC3)[C@H](OC)C2)n1` [compound 330], with 4.9 nM; and `Cc1cnc(N2CCC(NCC(C)C)CC2)c(-c2nc(C3CC3)no2)c1` [compound 397], with 1280 nM. On to `Cc1cc(C(=O)N(C)C)c(N2CCC(NC3CCCCC3)CC2)nn1` [compound 400], for which the IC50 was 279 nM. `Cc1ccc2nc(N3CCC(NCC(C)(C)O)CC3)c(-c3noc(C)n3)cc2c1` [compound 412] showed an IC50 of 476 nM.

For `Cc1ccc2nc(N3CCC(NC(=O)C4CCCCC4)CC3)c(-c3nc(C)no3)cc2c1` [C77], the IC50 is above 10000 nM. `Cc1noc(-c2cc(C)c(C)nc2N2CCC(NCC(C)C)CC2)n1` [compound 394] yielded an IC50 of 161 nM.

The molecule `Cc1ccc2nc(N3CCC(NC4CCCCC4)C(CO)C3)c(-c3noc(C)n3)cc2c1` (centres unmarked) [compound 328] registered an IC50 of 0.72 nM. The same measure, in the same setting: as for `COC(=O)c1cc(Br)cnc1N1CCC(N2CCN(C)CC2)CC1` [C8], the figure is above 10000 nM; as for `CO[C@@H]1CN(c2ncc(C)cc2-c2nc(C)no2)CC[C@@H]1NC1CCCCC1` [compound 341], 76 nM.

In turn, `CC(=O)c1cc(-c2ccccc2)cnc1N1CC[C@@H](NC2CCCCC2)[C@H](O)C1` [C65] showed an IC50 above 10000 nM. The same measure, in the same setting: then `COC(=O)c1cc(Br)cnc1N1CCC(OC2CCCCC2O)CC1` (centres unmarked) [C50], with above 10000 nM; and `CCC(CC)NC1CCN(c2nc3ccccc3c(C)c2-c2noc(C)n2)CC1` [compound 449], with 129 nM. On the same count and under the same terms, then `COC(=O)c1cc(Br)cnc1N1CCCC(NC2CCCCC2)C1` (centres unmarked) [C14], with above 10000 nM; and `COC(=O)c1cc(Br)cnc1N1CCC(N[C@@H]2CCCCC[C@@H]2O)CC1` [C9], with above 10000 nM.

For the molecule `COC1CN(c2nc3ccccc3cc2-c2cccnn2)CCC1NC1CCCCC1` (centres unmarked) [compound 463], the IC50 is 54 nM. `Cc1ccc2nc(N3CCC(NC4CCCC[C@@H]4O)CC3)c(-c3ccc(C)nn3)cc2c1` (some centres unmarked) [compound 443] had an IC50 of 33 nM. `Cc1ccc2nc(N3CCC(NC4CCC[C@@H]4O)CC3)c(-c3ccc(C)nn3)cc2c1` (some centres unmarked) [compound 444]: the IC50 is 634 nM. On the same count and under the same terms, then `CO[C@@H]1CN(c2nc3ccc(C)cc3cc2-c2nc(C3CC3)no2)CC[C@@H]1NC1CCCC1` [compound 340], with 6 nM.

`CO[C@H]1CN(c2nc3ccccc3nc2-c2nc(C)no2)CC[C@H]1NC1CCCCC1` [compound 333] yielded an IC50 of 6.6 nM.

Turning to `COC1CN(c2nc3c(C)cc(C)cc3cc2-c2nc(C)no2)CCC1NCC(C)C` (centres unmarked) [compound 365], the IC50 was found to be 8 nM. Consider `COC(=O)c1cnc(N2CC[C@@H](NC3CCCCC3)[C@H](O)C2)c(Br)c1` [compound 132], for which the IC50 is 4000 nM. Molecule `COC(=O)c1cc(Br)cnc1N1CCC(NCc2ccccc2OC)CC1` [C23] registered an IC50 above 10000 nM. As for `Cc1cnc(N2CCC(NCC(C)C)CC2)c(-c2ccc(C)nn2)c1` [C93], the IC50 amounted to 10200 nM. Turning to `COC(=O)c1cc(NC(=O)C(C)(C)C)cnc1N1CCC(NC2CCCCC2)CC1` [C37], the IC50 was above 10000 nM. Molecule `COC(=O)c1cc(Br)cnc1N1CCC(CN)CC1` [C16] gave an IC50 above 10000 nM. In the case of `Cc1cc(Cl)nc(N2CCC(N[C@@H]3CCCC[C@H]3O)CC2)c1C#N` [C11], the IC50 was above 10000 nM. On the same count and under the same terms, then `CCN(CC)C(=O)c1cc(Br)cnc1N1CCC(NC2CCCCC2)CC1` [C18], with above 10000 nM.

In the case of `Cc1ccc2nc(N3CCC(NC4CCCOC4)CC3)c(-c3noc(C)n3)cc2c1` (centres unmarked) [compound 419], the IC50 stood at 2 nM. The molecule `CO[C@@H]1CN(c2ncc(C)cc2-n2ccc(C)n2)CC[C@@H]1NC1CCCCC1` [compound 383] gave an IC50 of 1160 nM. Same read-out and setting: as for `Cc1ccc2nc(N3CCC(NC4CCOC4)CC3)c(-c3ccc(C)nn3)cc2c1` (centres unmarked) [compound 458], the figure is 440 nM. Same read-out and setting: as for `O=C(O)c1cc(Br)cnc1N1CCC(NC2CCCCC2)CC1` [C29], the figure is above 10000 nM. `CO[C@H]1CN(c2nc3ccc(C)cc3cc2-c2ccc(C)nn2)CC[C@H]1NC1CCCCC1` [compound 439] registered an IC50 of 231 nM. Still for that read-out and setting: as for `COC(=O)c1cc(Br)cnc1N1CCC(N2CCOCC2)CC1` [C5], the figure is above 10000 nM; as for `Cc1ccc(-c2nc(C)no2)c(N2CCC(NC3CCCCC3)C(CO)C2)n1` (centres unmarked) [compound 386], 31 nM.
